These results are taken from patent publication US20160193206A1, “BET-PROTEIN-INHIBITING DIHYDROPYRIDOPYRAZINONES” (BAYER PHARMA AKTIENGESELLSCHAFT, priority 2012, published 2016).

A word on the IC50: it is the concentration at which inhibition is half-maximal. High values mean weaker potency in that assay, low ones greater potency in that assay.

Test [1] concerns the target T1, BRD4 bromo domain 1 [BRD4(1)] (Homo sapiens, UniProt O60885).
T1 construct: N-terminally His6-tagged BRD4(1) (amino acids 67-152); made in house; host or cells: E. coli
The experiment in a line: BRD4(1)/acetylated peptide H4 binding assay (TR-FRET). Particulars: inhibition of interaction between His6-tagged BRD4(1) (amino acids 67-152) and acetylated histone H4 peptide. Put shortly: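 IC50 came from a 4-parameter fit of the 665/620 nm emission ratio, normalised to DMSO and no-protein controls. His6-tagged BRD4(1) residues 67-152 (typically 10 nM final) was preincubated 10 min with compound (0.1 nM to 20 μM, duplicates), then exposed to Ac-H4-biotin peptide at 22 °C for 1 h and 4 °C for at least 3 h.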
A general note: TR-FRET usually uses a lanthanide donor and a delayed reading to cut background.

Another test has as its system MOLM-13 cell line. The experiment in a line: MOLM-13 cell proliferation assay (alamarBlue). In kind it is cell-based. Particulars: Homo sapiens, inhibition of proliferation of MOLM-13 cells (acute myeloid leukaemia), 96 hours incubation. The method, then:
In accordance with the invention, the substances were tested for their ability to inhibit the proliferation of the MOLM-13 cell linie (Deutsche Sammlung für Mikroorganismen und Zellkulturen [German Collection of Microorganisms and Cell Cultures], ACC 554; acute myeloid leukaemia). Cell viability was determined by means of the alamarBlue® reagent (Invitrogen) in a Victor X3 Multilabel Reader (Perkin Elmer). The excitation wavelength was 530 nm and the emission wavelength […].
The MOLM-13 cells were sown at a density of 4000 cells/well in 100 μl of growth medium on 96-well microtitre plates. After overnight incubation at 37° C., the fluorescence values were determined (CI values). The plates were then treated with various substance dilutions and incubated at 37° C. for 96 hours. Subsequently, the fluorescence values were determined (CO values). For the data analysis, the CI values were subtracted from the CO values and the results were compared between cells which had been treated with various dilutions of the substance or only with buffer solution. The IC50 values (substance concentration needed for 50% inhibition of cell proliferation) were calculated therefrom.
In general terms: Resazurin is reduced to fluorescent resorufin, in cell work by metabolically active cells.

The target in test [2] is T2, BRD4 bromo domain 2 [BRD4(2)] (Homo sapiens, UniProt O60885).
T2 construct: N-terminally His6-tagged BRD4(2) (amino acids 357-445); made in house; host or cells: E. coli
The experiment in a line: BRD4(2)/acetylated peptide H4 binding assay (TR-FRET). The note with it: inhibition of interaction between His6-tagged BRD4(2) (amino acids 357-445) and acetylated histone H4 peptide. Put shortly:
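Compounds (0.1 nM to 20 μM, 11 points, duplicates) preincubated 10 min at 22 °C with 100 nM His6-tagged BRD4(2) residues 357-445, then Ac-H4-biotin peptide added; incubated 1 h at 22 °C and 3 h-overnight at 4 °C. Eu/XL665 emission ratio normalised to DMSO and no-protein controls; 4-parameter IC50.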

For the compound `C[C@@H]1C(=O)N(C)c2ccc(Nc3ccc(C(=O)N4CC5(CCS5(=O)=O)C4)cc3)nc2N1C1CCCC1` [Example 7, (3R)-4-Cyclopentyl-6-({4-[(1,1-dioxido-1-thia-6-azaspiro[3.3]hept-6-yl)carbonyl]phenyl}amino)-1,3-dimethyl-3,4-dihydropyrido[2,3-b]pyrazin-2(1H)-one], the IC50 was 91 nM in test [1] and 377 nM in the test with MOLM-13 cell line.

For `COc1cc(C(=O)NC2CCCC2)ccc1Nc1ccc2c(n1)N(C(C)C)[C@H](C)C(=O)N2C` [Example 6, N-Cyclopentyl-4-{[(3R)-1,3-dimethyl-2-oxo-4-(propan-2-yl)-1,2,3,4-tetrahydropyrido[2,3-b]pyrazin-6-yl]amino}-3-methoxybenzamide], the IC50 amounted to 255 nM in test [1] and 762 nM in the test on MOLM-13 cell line.

As to `COc1cc(C(=O)NCCN(C)C)ccc1Nc1ccc2c(n1)N(C(C)C)[C@H](C)C(=O)N2C` [Example 5, N-[2-(Dimethylamino)ethyl]-4-{[(3R)-1,3-dimethyl-2-oxo-4-(propan-2-yl)-1,2,3,4-tetrahydropyrido[2,3-b]pyrazin-6-yl]amino}-3-methoxybenzamide], the figures for the IC50 (in test [1]; with MOLM-13 cell line) were 93 nM and 503 nM, respectively.

In the case of `CC(=O)N1CCC(NC(=O)c2ccc(Nc3ccc4c(n3)N(C3CCCCCC3)[C@H](C)C(=O)N4C)cc2)CC1` [Example 86, N-(1-Acetylpiperidin-4-yl)-4-{[(3R)-4-cycloheptyl-1,3-dimethyl-2-oxo-1,2,3,4-tetrahydropyrido[2,3-b]pyrazin-6-yl]amino}benzamide], the half-inhibitory concentration (IC50) in test [1] turned out to be 180 nM; in test [2] it was 100 nM.

Consider `COc1cc(C(=O)NC2CCN(C(C)=O)CC2)ccc1Nc1ccc2c(n1)N(C1CCCCCC1)[C@H](C)C(=O)N2C` [Example 88, N-(1-Acetylpiperidin-4-yl)-4-{[(3R)-4-cycloheptyl-1,3-dimethyl-2-oxo-1,2,3,4-tetrahydropyrido[2,3-b]pyrazin-6-yl]amino}-3-methoxybenzamide], for which the IC50 in test [1] was 339 nM; in test [2] it was 146 nM.

Turning to `C[C@@H]1C(=O)N(C)c2ccc(Nc3ccc(C(=O)N4CCN(C(=O)OC(C)(C)C)CC4)cc3)nc2N1Cc1ccccc1` [Example 76, tert-Butyl 4-(4-{[(3R)-4-benzyl-1,3-dimethyl-2-oxo-1,2,3,4-tetrahydropyrido[2,3-b]pyrazin-6-yl]amino}benzoyl)piperazine-1-carboxylate], the values for the IC50 in test [1] and in test [2] were 840 nM and 273 nM, respectively.

Take `C[C@@H]1C(=O)N(C)c2ccc(Nc3ccc(C(=O)NCc4ccccn4)cc3)nc2N1C1CCOCC1` [Example 35, 4-{[(3R)-1,3-Dimethyl-2-oxo-4-(tetrahydro-2H-pyran-4-yl)-1,2,3,4-tetrahydropyrido[2,3-b]pyrazin-6-yl]amino}-N-(pyridin-2-ylmethyl)benzamide]: the figures for the IC50 in test [1] and in test [2] were 119 nM and 237 nM, respectively.

For the compound `COc1cc(C(=O)NC2CCN(C(C)=O)CC2)ccc1Nc1ccc2c(n1)N(C1CCCCC1)[C@H](C)C(=O)N2C` [Example 39, N-(1-Acetylpiperidin-4-yl)-4-{[(3R)-4-cyclohexyl-1,3-dimethyl-2-oxo-1,2,3,4-tetrahydropyrido[2,3-b]pyrazin-6-yl]amino}-3-methoxybenzamide], the figures for the IC50 in test [1] and in test [2] were 329 nM and 145 nM, respectively.

Turning to `CC(C)N1c2nc(Nc3ccc(C(=O)NC4CCN(C)CC4)cc3)ccc2N(C)C(=O)[C@H]1C` [Example 98, 4-{[(3R)-1,3-Dimethyl-2-oxo-4-(propan-2-yl)-1,2,3,4-tetrahydropyrido[2,3-b]pyrazin-6-yl]amino}-N-(1-methylpiperidin-4-yl)benzamide], the IC50 is 281 nM in test [1] and 98 nM in test [2].

Consider `C[C@@H]1C(=O)N(C)c2ccc(Nc3ccc(S(=O)(=O)N(C)C)cc3)nc2N1C1CCCCC1` [Example 17, 4-{[(3R)-4-Cyclohexyl-1,3-dimethyl-2-oxo-1,2,3,4-tetrahydropyrido[2,3-b]pyrazin-6-yl]amino}-N,N-dimethylbenzenesulphonamide], for which the results for the IC50 in test [1] and in test [2] were 308 nM and 111 nM, respectively.

Regarding `C[C@@H]1C(=O)N(C)c2ccc(Nc3ccc(C(=O)NC4CCC(O)CC4)cc3)nc2N1C1CCCCCC1` (stereo partly drawn) [Example 90, 4-{[(3R)-4-Cycloheptyl-1,3-dimethyl-2-oxo-1,2,3,4-tetrahydropyrido[2,3-b]pyrazin-6-yl]amino}-N-(4-hydroxycyclohexyl)benz-amide], the values for the IC50 in test [1] and in test [2] were 341 nM and 208 nM, respectively.

As for `C[C@@H]1C(=O)N(C)c2ccc(Nc3ccc(C(=O)NC4CN(C)C4)cc3)nc2N1C1CCCCCC1` [Example 85, 4-{[(3R)-4-Cycloheptyl-1,3-dimethyl-2-oxo-1,2,3,4-tetrahydropyrido[2,3-b]pyrazin-6-yl]amino}-N-(1-methylazetidin-3-yl)benzamide], the half-inhibitory concentration (IC50) worked out at 186 nM in test [1] and 98 nM in test [2].

Turning to `COc1cc(C(=O)N2CCN(C(C)C)CC2)ccc1Nc1ccc2c(n1)N(C1CCCCCC1)[C@H](C)C(=O)N2C` [Example 40, (3R)-4-Cycloheptyl-6-[(2-methoxy-4-{[4-(propan-2-yl)piperazin-1-yl]carbonyl}phenyl)amino]-1,3-dimethyl-3,4-dihydropyrido[2,3-b]pyrazin-2(1H)-one], the IC50 in test [1] was determined as 295 nM; in test [2] it was 161 nM.

With `C[C@@H]1C(=O)N(C)c2ccc(Nc3ccc(C(=O)NCCc4cccnc4)cc3)nc2N1C1CCOCC1` [Example 49, 4-{[(3R)-1,3-Dimethyl-2-oxo-4-(tetrahydro-2H-pyran-4-yl)-1,2,3,4-tetrahydropyrido[2,3-b]pyrazin-6-yl]amino}-N-[2-(pyridin-3-yl)ethyl]benzamide], the figures for the IC50 in test [1] and in test [2] were 114 nM and 317 nM, respectively.

Regarding `C[C@@H]1C(=O)N(C)c2ccc(Nc3ccc(C(=O)NCCN4CCN(C)CC4)cc3)nc2N1C1CCCCCC1` [Example 89, 4-{[(3R)-4-Cycloheptyl-1,3-dimethyl-2-oxo-1,2,3,4-tetrahydropyrido[2,3-b]pyrazin-6-yl]amino}-N-{2-(4-methylpiperazin-1-yl)ethyl]benzamide], the IC50 in test [1] amounted to 185 nM; in test [2], 93 nM.

Regarding `C[C@@H]1C(=O)N(C)c2ccc(Nc3ccc(C(=O)N4CC5(CCS5(=O)=O)C4)cc3)nc2N1C1CCCCC1` [Example 29, (3R)-4-Cyclohexyl-6-({4-[(1,1-dioxido-1-thia-6-azaspiro[3.3]hept-6-yl)carbonyl]phenyl}amino)-1,3-dimethyl-3,4-dihydropyrido[2,3-b]pyrazin-2(1H)-one], the IC50 amounted to 242 nM in test [1] and 149 nM in test [2].

As for `COc1cc(C(=O)NC2CCC(O)CC2)ccc1Nc1ccc2c(n1)N(C1CCOCC1)[C@H](C)C(=O)N2C` (stereo partly drawn) [Example 60, 4-{[(3R)-1,3-Dimethyl-2-oxo-4-(tetrahydro-2H-pyran-4-yl)-1,2,3,4-tetrahydropyrido[2,3-b]pyrazin-6-yl]amino}-N-(4-hydroxycyclohexyl)-3-methoxybenzamide], the results for the IC50 in test [1] and in test [2] were 339 nM and 212 nM, respectively.

For `COc1cc(C(=O)NCCN(C)C)ccc1Nc1ccc2c(n1)N(C1CCOCC1)[C@H](C)C(=O)N2C` [Example 46, N-[2-(Dimethyalmino)ethyl]-4-{[(3R)-1,3-dimethyl-2-oxo-4-(tetrahydro-2H-pyran-4-yl)-1,2,3,4-tetrahydropyrido[2,3-b]pyrazin-6-yl]amino}-3-methoxybenzamide], the IC50 in test [1] came out at 52 nM; with MOLM-13 cell line, 461 nM.
